Patent US10750743B2, “Pyridazinone herbicides” (E.I. DU PONT DE NEMOURS AND COMPANY, priority 2015, dated 2020)

Columns and labels:
Format in all cases: in vivo
[1] = tested on: foxtail, giant (giant foxtail, Setaria faberii); assay: Test A postemergence application, visual injury rating; conditions: 0 to 100 scale, 0 no effect, 100 complete control
Outline: (§1)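 Compounds in a surfactant-containing solvent were applied as a directed soil spray preemergence, or postemergence to plants 2-10 cm tall at the one- to two-leaf stage, in loam-sand blend. After about 10 d in the greenhouse, injury was rated visually against untreated controls on a 0-100 scale (100 = complete control).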

[2] = tested on: barnyardgrass (Echinochloa crus-galli); assay: as above; conditions: 0 to 100 scale, 0 no effect, 100 complete control
Outline: as §1

[3] = tested on: wheat (Triticum aestivum); assay: as above; conditions: 0 to 100 scale, 0 no effect, 100 complete control
Outline: as §1

kochia (Kochia scoparia) [4] = assay: as above; conditions: 0 to 100 scale, 0 no effect, 100 complete control
Outline: as §1

[5] = tested on: blackgrass (Alopecurus myosuroides); assay: as above; conditions: 0 to 100 scale, 0 no effect, 100 complete control
Outline: as §1

[6] = tested on: galium (catchweed bedstraw, Galium aparine); assay: as above; conditions: 0 to 100 scale, 0 no effect, 100 complete control
Outline: as §1

corn (Zea mays) = assay: as above; conditions: 0 to 100 scale, 0 no effect, 100 complete control
Outline: as §1

[7] = tested on: ryegrass, It. (Italian ryegrass, Lolium multiflorum); assay: as above; conditions: 0 to 100 scale, 0 no effect, 100 complete control
Outline: as §1

[8] = tested on: pigweed (Amaranthus retroflexus); assay: as above; conditions: 0 to 100 scale, 0 no effect, 100 complete control
Outline: as §1

[9] = tested on: ragweed (common ragweed, Ambrosia elatior); assay: as above; conditions: 0 to 100 scale, 0 no effect, 100 complete control
Outline: as §1

[10] = tested on: foxtail, giant (giant foxtail, Setaria faberii); assay: Test A preemergence, directed soil spray, visual injury rating; conditions: 0 is no effect, 100 is complete control
Outline: as §1

[11] = tested on: barnyardgrass (Echinochloa crus-galli); assay: as above; conditions: 0 is no effect, 100 is complete control
Outline: as §1

kochia (Kochia scoparia) [12] = assay: as above; conditions: 0 is no effect, 100 is complete control
Outline: as §1

[13] = tested on: ryegrass, It. (Italian ryegrass, Lolium multiflorum); assay: as above; conditions: 0 is no effect, 100 is complete control
Outline: as §1

[14] = tested on: pigweed (Amaranthus retroflexus); assay: as above; conditions: 0 is no effect, 100 is complete control
Outline: as §1

[15] = tested on: ragweed (common ragweed, Ambrosia elatior); assay: as above; conditions: 0 is no effect, 100 is complete control
Outline: as §1

rice (Oryza sativa) = assay: Test B flooded paddy test, visual rating; conditions: Flood, 250 g ai/ha, applied to paddy water, rated after 13 to 15 d
Outline: (§2)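 Plants grown to the 2-leaf stage. At treatment, pots were flooded to 3 cm above the soil, compound was applied directly to the paddy water, and that depth was held throughout. After 13 to 15 d in the greenhouse, response was rated visually against controls on a 0 (no effect) to 100 (complete control) scale.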

[16] = tested on: barnyardgrass (Echinochloa crus-galli); assay: Test B flooded paddy test, visual rating; conditions: Flood, 250 g ai/ha, applied to paddy water, rated after 13 to 15 d
Outline: as §2

[17] = tested on: sedge, umbrella (small-flower umbrella sedge, Cyperus difformis); assay: Test B flooded paddy test, visual rating; conditions: Flood, 250 g ai/ha, applied to paddy water, rated after 13 to 15 d
Outline: as §2

[18] = tested on: ducksalad (Heteranthera limosa); assay: Test B flooded paddy test, visual rating; conditions: Flood, 250 g ai/ha, applied to paddy water, rated after 13 to 15 d
Outline: as §2

Structure (SMILES)	Foxtail, Giant plant response rating ([1]; 125 g ai/ha)	Foxtail, Giant plant response rating ([1]; 500 g ai/ha)	Barnyardgrass plant response rating ([2]; 125 g ai/ha)	Barnyardgrass plant response rating ([2]; 500 g ai/ha)	Wheat plant response rating ([3]; 125 g ai/ha)	Wheat plant response rating ([3]; 500 g ai/ha)	Kochia plant response rating (kochia (Kochia scoparia) [4]; 125 g ai/ha)	Kochia plant response rating (kochia (Kochia scoparia) [4]; 500 g ai/ha)	Blackgrass plant response rating ([5]; 125 g ai/ha)	Blackgrass plant response rating ([5]; 500 g ai/ha)	Galium plant response rating ([6]; 125 g ai/ha)	Galium plant response rating ([6]; 500 g ai/ha)	Corn plant response rating (corn (Zea mays); 125 g ai/ha)	Corn plant response rating (corn (Zea mays); 500 g ai/ha)	Ryegrass, It. plant response rating ([7]; 125 g ai/ha)	Ryegrass, It. plant response rating ([7]; 500 g ai/ha)	Pigweed plant response rating ([8]; 125 g ai/ha)	Pigweed plant response rating ([8]; 500 g ai/ha)	Ragweed plant response rating ([9]; 125 g ai/ha)	Ragweed plant response rating ([9]; 500 g ai/ha)	also measured
Cc1nn(C)c(=O)c(-c2c(C)sc3ncccc23)c1OC(=O)C1CC1 [Compound 23]	0	0	0	0	0	0	0	0	0	0	0	0	0	20	0	10	0	40	0	0	Plant response rating (0 to 100 scale), Foxtail, Giant ([10]; 125 g ai/ha): 0; Plant response rating (0 to 100 scale), Foxtail, Giant ([10]; 500 g ai/ha): 0; Plant response rating (0 to 100 scale), Barnyardgrass ([11]; 125 g ai/ha): 0; Plant response rating (0 to 100 scale), Barnyardgrass ([11]; 500 g ai/ha): 0; Plant response rating (0 to 100 scale), Kochia (kochia (Kochia scoparia) [12]; 125 g ai/ha): 0; Plant response rating (0 to 100 scale), Kochia (kochia (Kochia scoparia) [12]; 500 g ai/ha): 0; Plant response rating (0 to 100 scale), Ryegrass, It. ([13]; 125 g ai/ha): 0; Plant response rating (0 to 100 scale), Ryegrass, It. ([13]; 500 g ai/ha): 0; Plant response rating (0 to 100 scale), Pigweed ([14]; 125 g ai/ha): 0; Plant response rating (0 to 100 scale), Pigweed ([14]; 500 g ai/ha): 0; Plant response rating (0 to 100 scale), Ragweed ([15]; 125 g ai/ha): 0; Plant response rating (0 to 100 scale), Ragweed ([15]; 500 g ai/ha): 0; Rice plant response rating (0 to 100 scale, 0 is no effect, 100 is complete control) (rice (Oryza sativa)): 0; Barnyardgrass plant response rating (0 to 100 scale, 0 is no effect, 100 is complete control) [16]: 0; Sedge, Umbrella plant response rating (0 to 100 scale, 0 is no effect, 100 is complete control) [17]: 0; Ducksalad plant response rating (0 to 100 scale, 0 is no effect, 100 is complete control) [18]: 0
CCc1sc2ncccc2c1-c1c(OC(=O)OC(C)C)c(C)nn(C)c1=O [Compound 20]	0	0	0	0	0	0	0	0	0	0	10	40	0	0	0	0	20	50	0	0	Plant response rating (0 to 100 scale), Foxtail, Giant ([10]; 125 g ai/ha): 0; Plant response rating (0 to 100 scale), Foxtail, Giant ([10]; 500 g ai/ha): 0; Plant response rating (0 to 100 scale), Barnyardgrass ([11]; 125 g ai/ha): 0; Plant response rating (0 to 100 scale), Barnyardgrass ([11]; 500 g ai/ha): 0; Plant response rating (0 to 100 scale), Kochia (kochia (Kochia scoparia) [12]; 125 g ai/ha): 0; Plant response rating (0 to 100 scale), Kochia (kochia (Kochia scoparia) [12]; 500 g ai/ha): 0; Plant response rating (0 to 100 scale), Ryegrass, It. ([13]; 125 g ai/ha): 0; Plant response rating (0 to 100 scale), Ryegrass, It. ([13]; 500 g ai/ha): 0; Plant response rating (0 to 100 scale), Pigweed ([14]; 125 g ai/ha): 0; Plant response rating (0 to 100 scale), Pigweed ([14]; 500 g ai/ha): 40; Plant response rating (0 to 100 scale), Ragweed ([15]; 125 g ai/ha): 0; Plant response rating (0 to 100 scale), Ragweed ([15]; 500 g ai/ha): 0; Rice plant response rating (0 to 100 scale, 0 is no effect, 100 is complete control) (rice (Oryza sativa)): 0; Barnyardgrass plant response rating (0 to 100 scale, 0 is no effect, 100 is complete control) [16]: 0; Sedge, Umbrella plant response rating (0 to 100 scale, 0 is no effect, 100 is complete control) [17]: 0; Ducksalad plant response rating (0 to 100 scale, 0 is no effect, 100 is complete control) [18]: 0
Cc1nn(C)c(=O)c(-c2c(C)sc3ncccc23)c1OC(=O)OC(C)C [Compound 15]	0	0	0	0	0	0	0	0	0	0	0	0	0	0	0	0	0	0	0	0	Plant response rating (0 to 100 scale), Foxtail, Giant ([10]; 125 g ai/ha): 0; Plant response rating (0 to 100 scale), Foxtail, Giant ([10]; 500 g ai/ha): 0; Plant response rating (0 to 100 scale), Barnyardgrass ([11]; 125 g ai/ha): 0; Plant response rating (0 to 100 scale), Barnyardgrass ([11]; 500 g ai/ha): 0; Plant response rating (0 to 100 scale), Kochia (kochia (Kochia scoparia) [12]; 125 g ai/ha): 0; Plant response rating (0 to 100 scale), Kochia (kochia (Kochia scoparia) [12]; 500 g ai/ha): 0; Plant response rating (0 to 100 scale), Ryegrass, It. ([13]; 125 g ai/ha): 0; Plant response rating (0 to 100 scale), Ryegrass, It. ([13]; 500 g ai/ha): 0; Plant response rating (0 to 100 scale), Pigweed ([14]; 125 g ai/ha): 0; Plant response rating (0 to 100 scale), Pigweed ([14]; 500 g ai/ha): 0; Plant response rating (0 to 100 scale), Ragweed ([15]; 125 g ai/ha): 0; Plant response rating (0 to 100 scale), Ragweed ([15]; 500 g ai/ha): 0; Rice plant response rating (0 to 100 scale, 0 is no effect, 100 is complete control) (rice (Oryza sativa)): 0; Barnyardgrass plant response rating (0 to 100 scale, 0 is no effect, 100 is complete control) [16]: 0; Sedge, Umbrella plant response rating (0 to 100 scale, 0 is no effect, 100 is complete control) [17]: 0; Ducksalad plant response rating (0 to 100 scale, 0 is no effect, 100 is complete control) [18]: 0
